Results taken from ChEMBL document CHEMBL4814045, “Discovery of novel Staphylococcus aureus penicillin binding protein 2a inhibitors by multistep virtual screening and biological evaluation” (Bioorg Med Chem Lett, 2021).
≈ marks a conversion by molar mass, not a printed value.

Assays:
Staphylococcus aureus [1] = test: Antibacterial activity against methicillin-resistant Staphylococcus aureus ATCC 33591; type: functional
Staphylococcus aureus [2] = test: Antibacterial activity against Staphylococcus aureus […]; type: functional
L02 = test: Cytotoxicity against human LO2 cells; type: cell-based
[3] = target: T1, MecA (Staphylococcus aureus) (UniProt Q7DHH4); test: Binding affinity to Staphylococcus aureus PBP2a assessed as association constant by SPR assay
T1 sequence (whole entry): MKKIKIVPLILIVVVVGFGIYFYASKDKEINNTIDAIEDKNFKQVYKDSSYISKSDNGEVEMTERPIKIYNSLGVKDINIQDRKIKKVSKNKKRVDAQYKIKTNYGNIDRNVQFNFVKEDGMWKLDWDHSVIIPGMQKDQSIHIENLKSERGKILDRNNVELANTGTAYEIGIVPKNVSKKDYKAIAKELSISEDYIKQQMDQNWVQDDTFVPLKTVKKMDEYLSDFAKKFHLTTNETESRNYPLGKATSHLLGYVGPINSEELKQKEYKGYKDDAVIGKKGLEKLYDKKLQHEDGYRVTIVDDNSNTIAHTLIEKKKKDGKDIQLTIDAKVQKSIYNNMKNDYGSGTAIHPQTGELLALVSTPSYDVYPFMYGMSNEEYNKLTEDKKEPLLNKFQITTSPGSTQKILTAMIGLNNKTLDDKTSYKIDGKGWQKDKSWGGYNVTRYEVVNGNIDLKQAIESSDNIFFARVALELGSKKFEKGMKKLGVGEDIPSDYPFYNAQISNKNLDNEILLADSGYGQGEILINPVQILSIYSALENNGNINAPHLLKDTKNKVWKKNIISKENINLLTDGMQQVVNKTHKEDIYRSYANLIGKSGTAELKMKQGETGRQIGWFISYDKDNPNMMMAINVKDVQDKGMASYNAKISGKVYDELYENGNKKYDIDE

MecA = target: T2, MecA (Staphylococcus aureus, UniProt Q7DHH4); test: Binding affinity to Staphylococcus aureus PBP2a assessed as equilibrium dissociation constant by SPR assay
T2 sequence (Q7DHH4 whole entry): T1 sequence (whole entry)

Staphylococcus aureus [4] = test: Antibacterial activity against methicillin-resistant Staphylococcus aureus 03 clinical isolate by broth dilution assay; type: functional
Staphylococcus aureus [5] = test: Bactericidal activity against methicillin-resistant Staphylococcus aureus 06 clinical isolate by broth dilution assay; type: functional
Staphylococcus aureus [6] = test: Bactericidal activity against methicillin-resistant Staphylococcus aureus 09 clinical isolate by broth dilution assay; type: functional
Staphylococcus aureus [7] = test: Bactericidal activity against methicillin-resistant Staphylococcus aureus 11 clinical isolate by broth dilution assay; type: functional
Staphylococcus aureus [8] = test: Bactericidal activity against methicillin-resistant Staphylococcus aureus 02 clinical isolate by broth dilution assay; type: functional
Staphylococcus aureus [9] = test: Antibacterial activity against methicillin-resistant Staphylococcus aureus 12 clinical isolate by broth dilution assay; type: functional
Staphylococcus aureus [10] = test: Bactericidal activity against methicillin-resistant Staphylococcus aureus 08 clinical isolate by broth dilution assay; type: functional
Staphylococcus aureus [11] = test: Bactericidal activity against methicillin-resistant Staphylococcus aureus 04 clinical isolate by broth dilution assay; type: functional
Staphylococcus aureus [12] = test: Bactericidal activity against methicillin-resistant Staphylococcus aureus 13 clinical isolate by broth dilution assay; type: functional
Staphylococcus aureus [13] = test: Bactericidal activity against methicillin-resistant Staphylococcus aureus 10 clinical isolate by broth dilution assay; type: functional
Staphylococcus aureus [14] = test: Bactericidal activity against methicillin-resistant Staphylococcus aureus 05 clinical isolate by broth dilution assay; type: functional
Staphylococcus aureus [15] = test: Antibacterial activity against methicillin-resistant Staphylococcus aureus 08 clinical isolate by broth dilution assay; type: functional
Staphylococcus aureus [16] = test: Bactericidal activity against methicillin-resistant Staphylococcus aureus 07 clinical isolate by broth dilution assay; type: functional
Staphylococcus aureus [17] = test: Bactericidal activity against methicillin-resistant Staphylococcus aureus 03 clinical isolate by broth dilution assay; type: functional
Staphylococcus aureus [18] = test: Bactericidal activity against methicillin-resistant Staphylococcus aureus 12 clinical isolate by broth dilution assay; type: functional
Staphylococcus aureus [19] = test: Bactericidal activity against methicillin-resistant Staphylococcus aureus 01 clinical isolate by broth dilution assay; type: functional
Staphylococcus aureus [20] = test: Antibacterial activity against methicillin-resistant Staphylococcus aureus 11 clinical isolate by broth dilution assay; type: functional
Staphylococcus aureus [21] = test: Antibacterial activity against methicillin-resistant Staphylococcus aureus 01 clinical isolate by broth dilution assay; type: functional
Staphylococcus aureus [22] = test: Antibacterial activity against methicillin-resistant Staphylococcus aureus 10 clinical isolate by broth dilution assay; type: functional
Staphylococcus aureus [23] = test: Antibacterial activity against methicillin-resistant Staphylococcus aureus 13 clinical isolate by broth dilution assay; type: functional
Staphylococcus aureus [24] = test: Antibacterial activity against methicillin-resistant Staphylococcus aureus 07 clinical isolate by broth dilution assay; type: functional
Staphylococcus aureus [25] = test: Antibacterial activity against methicillin-resistant Staphylococcus aureus 05 clinical isolate by broth dilution assay; type: functional
Staphylococcus aureus [26] = test: Antibacterial activity against methicillin-resistant Staphylococcus aureus 06 clinical isolate by broth dilution assay; type: functional
Staphylococcus aureus [27] = test: Antibacterial activity against methicillin-resistant Staphylococcus aureus 09 clinical isolate by broth dilution assay; type: functional
Staphylococcus aureus [28] = test: Antibacterial activity against methicillin-resistant Staphylococcus aureus 04 clinical isolate by broth dilution assay; type: functional
Staphylococcus aureus [29] = test: Antibacterial activity against methicillin-resistant Staphylococcus aureus 02 clinical isolate by broth dilution assay; type: functional

COc1ccc(CCNC(=O)COc2ccc3c(c2)OC2(CCN(C(C)=O)CC2)CC3=O)cc1OC
MIC (Staphylococcus aureus [1]): 64 µg/mL (≈ 129 µM) | MIC (Staphylococcus aureus [2]): 16 µg/mL (≈ 32.2 µM) | IC50 (L02): 7.8 µM

COc1ccc(-c2cc(=O)oc3c(C)c(OCC(=O)N[C@@H](Cc4c[nH]c5ccc(O)cc45)C(=O)O)ccc23)cc1
MIC (Staphylococcus aureus [1]): 4 µg/mL (≈ 7.37 µM) | Ka [3]: 5.65 10^5/M/s | MIC (Staphylococcus aureus [2]): 4 µg/mL (≈ 7.37 µM) | IC50 (L02): 11.6 µM | Kd (MecA): 0.264 µM

C[C@]12CCC(=O)C=C1CC[C@@H]1[C@H]2CC[C@@]2(C)[C@H]1CC[C@]2(O)C(=O)COC(=O)CCC(=O)N[C@H]1CCCCNC1=O
MIC (Staphylococcus aureus [1]): 4 µg/mL (≈ 7.19 µM) | MIC (Staphylococcus aureus [2]): 4 µg/mL (≈ 7.19 µM) | IC50 (L02): 16.9 µM

COc1cc2c(c(OC)c1OC)-c1ccc(NCC(=O)NCCc3c[nH]c4ccccc34)c(=O)cc1[C@@H](NC(C)=O)CC2
MIC (Staphylococcus aureus [1]): 4 µg/mL (≈ 6.84 µM) | Ka [3]: 3.48 10^5/M/s | MIC (Staphylococcus aureus [2]): 2 µg/mL (≈ 3.42 µM) | IC50 (L02): > 20 µM | Kd (MecA): 0.168 µM

O=C(C[C@@H]1NC(=O)c2ccccc2NC1=O)NCCc1c[nH]c2ccc(OCc3ccccc3)cc12
MIC (Staphylococcus aureus [1]): 32 µg/mL (≈ 66.3 µM) | MIC (Staphylococcus aureus [2]): 64 µg/mL (≈ 133 µM) | IC50 (L02): > 20 µM

COc1ccc(NC(=O)[C@H]2Oc3c(c(=O)oc4ccccc34)[C@@H]2c2ccc(CCCN3CCCC3=O)cc2)cc1
MIC (Staphylococcus aureus [1]): 64 µg/mL (≈ 119 µM) | Ka [3]: 2.46 10^4/M/s | MIC (Staphylococcus aureus [2]): 128 µg/mL (≈ 238 µM) | IC50 (L02): > 20 µM | Kd (MecA): 86.6 µM

COc1ccc(CNC(=O)[C@@H](C)Oc2ccc3c(c2)c2cncc4c5cc(OC)c(OC)cc5c(=O)n3c42)c(OC)c1
MIC (Staphylococcus aureus [1]): 128 µg/mL (≈ 226 µM) | MIC (Staphylococcus aureus [2]): 64 µg/mL (≈ 113 µM) | IC50 (L02): 6.4 µM

CN[C@H](CC(C)C)C(=O)N[C@H]1C(=O)N[C@@H](CC(N)=O)C(=O)N[C@H]2C(=O)N[C@H]3C(=O)N[C@H](C(=O)N[C@H](C(=O)O)c4cc(O)cc(O)c4-c4cc3ccc4O)[C@H](O)c3ccc(c(Cl)c3)Oc3cc2cc(c3O[C@@H]2O[C@H](CO)[C@@H](O)[C@H](O)[C@H]2O[C@H]2C[C@](C)(N)[C@H](O)[C@H](C)O2)Oc2ccc(cc2Cl)[C@H]1O [VANCOMYCIN]
MIC (Staphylococcus aureus [4]): 8 µg/mL (≈ 5.52 µM) | MBC (Staphylococcus aureus [5]): 8 µg/mL (≈ 5.52 µM) | MBC (Staphylococcus aureus [6]): 32 µg/mL (≈ 22.1 µM) | MBC (Staphylococcus aureus [7]): 64 µg/mL (≈ 44.2 µM) | MBC (Staphylococcus aureus [8]): 64 µg/mL (≈ 44.2 µM) | MIC (Staphylococcus aureus [9]): 8 µg/mL (≈ 5.52 µM) | MBC (Staphylococcus aureus [10]): 64 µg/mL (≈ 44.2 µM) | MBC (Staphylococcus aureus [11]): 128 µg/mL (≈ 88.3 µM) | MBC (Staphylococcus aureus [12]): 64 µg/mL (≈ 44.2 µM) | MBC (Staphylococcus aureus [13]): 128 µg/mL (≈ 88.3 µM) | MBC (Staphylococcus aureus [14]): 64 µg/mL (≈ 44.2 µM) | MIC (Staphylococcus aureus [15]): 8 µg/mL (≈ 5.52 µM) | IC50 (L02): > 20 µM | MBC (Staphylococcus aureus [16]): 32 µg/mL (≈ 22.1 µM) | MBC (Staphylococcus aureus [17]): 128 µg/mL (≈ 88.3 µM) | MBC (Staphylococcus aureus [18]): 128 µg/mL (≈ 88.3 µM) | MBC (Staphylococcus aureus [19]): 32 µg/mL (≈ 22.1 µM) | MIC (Staphylococcus aureus [20]): 16 µg/mL (≈ 11 µM)

Cc1ccc(NC(=O)[C@H](Cc2c[nH]c3ccccc23)NC(=O)C2CCN(C(=O)CNC(=O)OC(C)(C)C)CC2)cc1
MIC (Staphylococcus aureus [21]): 2 µg/mL (≈ 3.56 µM) | MIC (Staphylococcus aureus [4]): 8 µg/mL (≈ 14.2 µM) | MBC (Staphylococcus aureus [5]): 64 µg/mL (≈ 114 µM) | MBC (Staphylococcus aureus [6]): 64 µg/mL (≈ 114 µM) | MIC (Staphylococcus aureus [1]): 2 µg/mL (≈ 3.56 µM) | MBC (Staphylococcus aureus [7]): 128 µg/mL (≈ 228 µM) | MBC (Staphylococcus aureus [8]): 64 µg/mL (≈ 114 µM) | MIC (Staphylococcus aureus [9]): 8 µg/mL (≈ 14.2 µM) | MBC (Staphylococcus aureus [10]): 32 µg/mL (≈ 57 µM) | MBC (Staphylococcus aureus [11]): 64 µg/mL (≈ 114 µM) | MBC (Staphylococcus aureus [12]): 128 µg/mL (≈ 228 µM) | MBC (Staphylococcus aureus [13]): 64 µg/mL (≈ 114 µM) | MBC (Staphylococcus aureus [14]): 8 µg/mL (≈ 14.2 µM) | MIC (Staphylococcus aureus [22]): 4 µg/mL (≈ 7.12 µM) | MIC (Staphylococcus aureus [15]): 0.5 µg/mL (≈ 0.89 µM) | MIC (Staphylococcus aureus [23]): 16 µg/mL (≈ 28.5 µM) | Ka [3]: 3.28 10^5/M/s | MIC (Staphylococcus aureus [2]): 2 µg/mL (≈ 3.56 µM) | IC50 (L02): > 20 µM | MIC (Staphylococcus aureus [24]): 4 µg/mL (≈ 7.12 µM) | MIC (Staphylococcus aureus [25]): 1 µg/mL (≈ 1.78 µM) | MBC (Staphylococcus aureus [16]): 64 µg/mL (≈ 114 µM) | MBC (Staphylococcus aureus [17]): 128 µg/mL (≈ 228 µM) | MIC (Staphylococcus aureus [26]): 4 µg/mL (≈ 7.12 µM) | MBC (Staphylococcus aureus [18]): 256 µg/mL (≈ 456 µM) | MBC (Staphylococcus aureus [19]): 32 µg/mL (≈ 57 µM) | MIC (Staphylococcus aureus [20]): 2 µg/mL (≈ 3.56 µM) | MIC (Staphylococcus aureus [27]): 16 µg/mL (≈ 28.5 µM) | MIC (Staphylococcus aureus [28]): 4 µg/mL (≈ 7.12 µM) | MIC (Staphylococcus aureus [29]): 4 µg/mL (≈ 7.12 µM) | Kd (MecA): 0.129 µM

CC[C@H](C)[C@@H](CC(=O)CNC(=O)CCc1c(C)c2cc3oc(C)c(-c4ccccc4)c3c(C)c2oc1=O)C(=O)O
MIC (Staphylococcus aureus [1]): 64 µg/mL (≈ 117 µM) | MIC (Staphylococcus aureus [2]): 32 µg/mL (≈ 58.6 µM) | IC50 (L02): > 20 µM

CC(=O)Nc1ccc(NC(=O)COc2cc3c(c4oc(=O)c(C)c(C)c24)CCC(C)(C)O3)cc1
MIC (Staphylococcus aureus [1]): 64 µg/mL (≈ 138 µM) | MIC (Staphylococcus aureus [2]): 32 µg/mL (≈ 68.9 µM) | IC50 (L02): > 20 µM

COc1cccc(/C=C2\Oc3cc(OCC(=O)N[C@@H](Cc4c[nH]c5ccccc45)C(=O)O)ccc3C2=O)c1
MIC (Staphylococcus aureus [1]): 8 µg/mL (≈ 15.6 µM) | MIC (Staphylococcus aureus [2]): 4 µg/mL (≈ 7.8 µM) | IC50 (L02): > 20 µM
